Reference: patent US20150031656A1, “COMBINATION THERAPY FOR TREATING ANDROGEN DEFICIENCY” (REPROS THERAPEUTICS INC., priority 2012, published 2015)
Read-outs that look alike come from different tables or passages of the source.

Assays:
total testosterone = assay: Placebo controlled study of Androxal vs Androgel in hypogonadal men: testosterone; type: in vivo, human; settings: for mean increase in testosterone from baseline: oral, two weeks
Description: (§1) Half of the men in each of the Androxal™ and placebo arms were randomized into cohorts that underwent in-clinic sessions on days 1 and 14 to determine pharmacokinetic parameters for Androxal™ as well as cyclical changes in testosterone. The placebo and Androxal™ doses were administered in a double blind fashion. […] Following the two week drug exposure patients were followed for an additional seven to ten days to determine the status of their testosterone levels.

serum LH = assay: Androxal vs Androgel in hypogonadal men: serum LH; type: in vivo, human
Description: as §1

serum FSH = assay: Androxal vs Androgel in hypogonadal men: serum FSH; type: in vivo, human; settings: two weeks treatment and follow-up
Description: as §1

[1] = system: serum dihydroxytestosterone (DHT); assay: Androxal vs Androgel in hypogonadal men: DHT to total testosterone ratio; type: in vivo, human; settings: men on Androxal 50 mg; placebo group ratio 1.07
Description: as §1

triglycerides = assay: Androxal vs Androgel in hypogonadal men: triglycerides; type: in vivo, human; settings: men on Androxal, non-dose dependent, after two weeks of therapy
Description: as §1

[2] = Androxal vs Androgel in hypogonadal men: side effects; settings: two week exposure
Description: as §1

morning testosterone = assay: Androxal vs Testim, three month placebo-controlled trial: morning testosterone; type: in vivo, human; settings: for Median Morning Testosterone, Baseline T: before dosing; for Median Morning Testosterone, Baseline T / Median Morning Testosterone, Final T: no unit in table; for Median Morning Testosterone, Final T: end of three month dosing
Description: (§2) Over 900 men were screened to achieve a total of 108 men who met all criteria and were enrolled in the study. All 108 men enrolled in the study satisfied the requirement of at least one dose and one visit in which efficacy measures could be assessed. The subjects were randomized into four groups: (i) placebo; (ii) 12.5 mg Androxal; (iii) 25 mg Androxal; and (iv) Testim. There was no statistical difference among the groups in testosterone at baseline.

sperm counts = assay: Androxal vs Testim, three month trial: sperm counts; type: in vivo, human
Description: as §2
Sperm counts were assessed at baseline and after dosing was completed. Spermatogenesis is approximately a 64 day cycle and detection of early changes after 3 months of treatment would be expected. At baseline, the median values of all four arms were above the generally accepted lower level of sperm counts for normal males (20 million sperm per ml). […] The median sperm count for the men in the combined Androxal arms was 93.8 million sperm/ml (p value=0.001 compared to Testim). […] No drug related serious adverse effects occurred that led to discontinuation.

[3] = Androxal vs Testim, three month trial: tolerability; type: in vivo, human; settings: both doses (12.5 and 25 mg), three months
Description: as §2

serum testosterone = assay: Androxal vs Testim, 6 month spermatogenesis trial: serum testosterone; type: in vivo, human; settings: after 3 months of treatment, sustained for another 3 months
Description: (§3) The mean age of the subjects was 46 years and mean body weight was 233 pounds. […] Subjects were required to discontinue topical exogenous testosterone for at least 30 days prior to receiving study medication. Effects of the treatment on sperm parameters associated with fertility as well as on FSH and LH levels were evaluated following 3 and 6 months of therapy and one month after cessation of treatment. Semen analysis included semen volume, total sperm count, sperm concentration, percent motility and percent normal morphology. There were 6 laboratory visits including a screening (V1), baseline (V2) and post first dose visits at 1 month (V3), 3 months (V4) and 6 months (V5) as well as a one month post therapy follow-up visit (V6).

LH and FSH = assay: Androxal vs Testim, 6 month spermatogenesis trial: LH and FSH; type: in vivo, human; settings: secondary hypogonadal men, 3 and 6 months of therapy
Description: as §3

[4] = Androxal vs Testim, 6 month spermatogenesis trial: tolerability; type: in vivo, human; settings: 6 months of drug therapy
Description: as §3

testosterone = settings: for 24 hr T <300 ng/dl @ Week 6 / Any T >1100 ng/dl @ Week 6: number of men
Description: Sixty men with testosterone levels not exceeding 350 ng/dl were enrolled in the study and randomized to one of four parallel arms: (i) 6.25 mg Androxal (ii) 12.5 mg Androxal (iii) 25 mg Androxal or (iv) Androgel. The average age of men in the study was 53.1 (10.1) and their average body mass index (BMI) was 31.8 (6.1). The men were dosed for 6 weeks and then followed for an additional 7 days after cessation of treatment. Subjects in all arms visited the clinic every 2 weeks for assessments. Twenty-four hour assessments were made at baseline before dosing commenced and after 6 weeks of treatment, at which point testosterone and LH were assessed hourly.

[5] = three month dosing, Androxal arms combined, Testim arm

SMILES: CCN(CC)CCOc1ccc(/C(=C(\Cl)c2ccccc2)c2ccccc2)cc1 [Androxal™, trans-clomiphene]
- serum total testosterone in the follow-up period (total testosterone; 7-10 days after cessation of daily oral treatment): unexpectedly remained high
- mean total testosterone (total testosterone; hypogonadal men, Androxal 50 mg, after 15 days): 589 ± 172 ng/dL
- mean increase in testosterone from baseline (total testosterone; hypogonadal men, Androxal high dose (50 mg)): 294 ng/dL
- mean increase in testosterone from baseline (total testosterone; hypogonadal men, Androxal low dose (12.5 mg)): 169 ng/dL
- mean increase in testosterone from baseline (total testosterone; hypogonadal men, Androxal mid dose (25 mg)): 247 ng/dL
- serum LH in the follow-up period (serum LH; 7-10 days after cessation of treatment): remained high
- serum levels of LH during treatment (serum LH; hypogonadal men, two weeks treatment): statistically significant increase
- serum levels of FSH (serum FSH): boosts serum FSH which remains high during the follow-up period
- DHT/TT ratio [1]: 0.83
- reduction in triglycerides, average (triglycerides): 19.1%
- side effects different than placebo [2]: no side effects noted
- Median Morning Testosterone, Baseline T (morning testosterone; Androxal 12.5 mg (n = 26), text uses ng/dl): 202
- Median Morning Testosterone, Final T (morning testosterone; Androxal 12.5 mg (n = 26)): 432
- Median Morning Testosterone, Baseline T (morning testosterone; Androxal 25 mg (n = 30)): 202
- Median Morning Testosterone, Final T (morning testosterone; Androxal 25 mg (n = 30)): 416
- men exceeding the normal maximum level of testosterone (1100 ng/dl) (morning testosterone; [5]): no men
- men in the normal range for morning testosterone levels (300-1100 ng/dl) (morning testosterone; [5]): 69.9%
- change in sperm counts from baseline (in words) (sperm counts; end of the three month dosing period): no statistically significant changes
- median sperm count (sperm counts; end of three month dosing, Androxal arms combined, Testim arm): 93.8 million sperm/ml
- tolerability compared to placebo [3]: generally well tolerated
- mean serum testosterone (serum testosterone): statistically significant rise
- LH and FSH levels (LH and FSH): significantly increased both LH and FSH
- tolerability [4]: well tolerated by all subjects
- 24 hr T <300 ng/dl @ Week 6 (testosterone; Androxal 6.25 mg): 4 out of 12
- Any T >1100 ng/dl @ Week 6 (testosterone; Androxal 6.25 mg): 0 out of 12
- 24 hr T <300 ng/dl @ Week 6 (testosterone; Androxal 12.5 mg): 2 out of 10
- Any T >1100 ng/dl @ Week 6 (testosterone; Androxal 12.5 mg): 0 out of 10
- 24 hr T <300 ng/dl @ Week 6 (testosterone; Androxal 25 mg): 0 out of 13
- Any T >1100 ng/dl @ Week 6 (testosterone; Androxal 25 mg): 0 out of 13
- morning testosterone after the seven day follow-up (in words) (testosterone; all Androxal arms (6.25, 12.5, 25 mg)): improved morning testosterone compared to baseline
